Measured values reported in ChEMBL document CHEMBL1201862, “PubChem BioAssay data set” (2004).
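Interpolation was linear, between the two tested concentrations surrounding the appropriate level; five concentrations were tested over 48 hours in 96-well plates. GI50 marks 50% less growth.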 Activity calls are given as the source filed them. Cut-off read from the data, not from the text of the source: active = GI50 up to about 1.1 µM and inactive = higher. Where a SMILES comes first, the peptide text is derived from it. The star is where a group is joined. Boc = CC(C)(C)OC(=O)*

Columns and labels:
Test in all cases: inhibition of tumour cell growth, NCI panel, 48 h
K562 = tested on: K562
SK-MEL-28 = tested on: SK-MEL-28
SN12C = tested on: SN12C
IGROV-1 = tested on: IGROV-1
COLO 205 = tested on: COLO 205
RPMI-8226 = tested on: RPMI-8226
HOP-62 = tested on: HOP-62
NCI-H522 = tested on: NCI-H522
HL-60 = tested on: HL-60
U-251 = tested on: U-251
CCRF-CEM = tested on: CCRF-CEM
SR = tested on: SR
HCT-15 = tested on: HCT-15
OVCAR-3 = tested on: OVCAR-3
SK-OV-3 = tested on: SK-OV-3
MDA-MB-435 = tested on: MDA-MB-435
NCI/ADR-RES = tested on: NCI/ADR-RES
MDA-N = tested on: MDA-N
MDA-MB-231 = tested on: MDA-MB-231
Hs-578T = tested on: Hs-578T

Row | SMILES | GI50 (K562) | GI50 (SK-MEL-28) | GI50 (SN12C) | GI50 (IGROV-1) | GI50 (COLO 205) | GI50 (RPMI-8226) | GI50 (HOP-62) | GI50 (NCI-H522) | GI50 (HL-60) | GI50 (U-251) | GI50 (CCRF-CEM) | GI50 (SR) | GI50 (HCT-15) | GI50 (OVCAR-3) | GI50 (SK-OV-3) | GI50 (MDA-MB-435) | GI50 (NCI/ADR-RES) | GI50 (MDA-N) | GI50 (MDA-MB-231) | GI50 (Hs-578T)
1 | CN1C(=O)CCC1(O)C1C=CC=CC1 (stereo unspecified) | > 100 µM (inactive) | > 100 µM (inactive) | > 100 µM (inactive) | > 100 µM (inactive) | > 100 µM (inactive) | > 100 µM (inactive) | > 100 µM (inactive) | > 100 µM (inactive) | > 100 µM (inactive) | > 100 µM (inactive) | > 100 µM (inactive) | > 100 µM (inactive) | > 100 µM | > 100 µM (inactive) | > 100 µM (inactive) |  |  |  |  | 
2 | C(CCCCc1nnc(N2CCOCC2)o1)CCCc1nnc(N2CCOCC2)o1 | > 100 µM (inactive) | > 100 µM (inactive) | > 100 µM (inactive) | > 100 µM (inactive) | > 100 µM (inactive) |  | > 100 µM (inactive) |  | > 100 µM (inactive) | > 100 µM (inactive) | > 100 µM (inactive) |  | > 100 µM | > 100 µM (inactive) | > 100 µM (inactive) | > 100 µM (inactive) | > 100 µM (inactive) | > 100 µM (inactive) | > 100 µM (inactive) | 
3 | COc1ccccc1-c1cc(O)c2ccc(C)nc2n1 | 58.9 µM (inactive) | > 100 µM (inactive) | > 100 µM (inactive) | 40.6 µM (inactive) | 54.1 µM (inactive) | > 100 µM (inactive) | > 100 µM (inactive) | 56.6 µM (inactive) |  |  | > 100 µM (inactive) |  | 43.4 µM |  | > 100 µM (inactive) |  | > 100 µM (inactive) |  | > 100 µM (inactive) | > 100 µM (inactive)
4 | CN(C(=O)C1=CCC2(CC1)OCCO2)c1ccccc1I | > 100 µM (inactive) | > 100 µM (inactive) | > 100 µM (inactive) | > 100 µM (inactive) | > 100 µM (inactive) | > 100 µM (inactive) | > 100 µM (inactive) | > 100 µM (inactive) | 96.6 µM (inactive) | > 100 µM (inactive) | > 100 µM (inactive) | > 100 µM (inactive) | > 100 µM | > 100 µM (inactive) | > 100 µM (inactive) | > 100 µM (inactive) | > 100 µM (inactive) | > 100 µM (inactive) | > 100 µM (inactive) | 
5 | Cc1cc(C)c2c(c1)CSCc1cc(C)cc(C)c1-2 | 32.8 µM (inactive) | 1.72 µM (inactive) | 35.2 µM (inactive) | 34.1 µM (inactive) | 26.5 µM (inactive) | 22.9 µM (inactive) | 27.6 µM (inactive) | 22.5 µM (inactive) | 21.1 µM (inactive) | 19.8 µM (inactive) | 23 µM (inactive) | 23.9 µM (inactive) | 32.4 µM | 30.3 µM (inactive) | 88.9 µM (inactive) |  |  |  |  | 
6 | Cc1cccc(NC(=S)Nc2ccc(Cl)cc2)n1 | > 100 µM (inactive) | > 100 µM (inactive) |  | > 100 µM (inactive) | > 100 µM (inactive) | > 100 µM (inactive) | > 100 µM (inactive) |  | > 100 µM (inactive) | > 100 µM (inactive) | > 100 µM (inactive) | > 100 µM (inactive) | > 100 µM |  | > 100 µM (inactive) | > 100 µM (inactive) | > 100 µM (inactive) |  | > 100 µM (inactive) | > 100 µM (inactive)
7 | CC(OC1CC(=O)CC2C(=O)C=CC(=O)C12)c1ccccc1 (stereo unspecified) | 3.31 µM (inactive) | 20.8 µM (inactive) | 19 µM (inactive) | 17.4 µM (inactive) | 16.9 µM (inactive) | 17.3 µM (inactive) | 24 µM (inactive) | 1.53 µM (inactive) | 3.25 µM (inactive) | 14.5 µM (inactive) | 2.67 µM (inactive) | 19.1 µM (inactive) | 17.1 µM | 19.2 µM (inactive) | > 42.2 µM (inactive) |  |  |  |  | 
8 | COC(=O)C(Cc1c[nH]c2ccccc12)NC(=O)C(Cc1c[nH]c2ccccc12)NC(=O)C(Cc1c[nH]c2ccccc12)NC(=O)C(Cc1c[nH]c2ccccc12)NC(=O)C(Cc1c[nH]c2ccccc12)NC(=O)C(Cc1c[nH]c2ccccc12)NC(=O)C(Cc1c[nH]c2ccccc12)NC(=O)OC(C)(C)C (stereo unspecified) (Boc-WWWWWWW-OMe; configuration not given here) | 64.1 µM (inactive) | 35.6 µM (inactive) | 62.2 µM (inactive) | > 100 µM (inactive) |  | 46.7 µM (inactive) | > 100 µM (inactive) | 54.6 µM (inactive) | 41.7 µM (inactive) | 37.4 µM (inactive) | 92.7 µM (inactive) | 48 µM (inactive) | > 100 µM | > 100 µM (inactive) |  | > 100 µM (inactive) |  | 63.7 µM (inactive) | > 100 µM (inactive) | 
9 | COc1cc2c(cc1OC)C(N(C)C)C(c1ccccc1)=C2Cl (stereo unspecified) | 27.9 µM (inactive) | 18.7 µM (inactive) | 18.7 µM (inactive) | 21.8 µM (inactive) | 17.9 µM (inactive) | 18.2 µM (inactive) | 36.4 µM (inactive) | 10.1 µM (inactive) | 16.1 µM (inactive) | 16.6 µM (inactive) | 60.5 µM (inactive) | 4.54 µM (inactive) | 17.5 µM | 21.3 µM (inactive) | 22 µM (inactive) |  |  |  |  | 
